Earlier results in patent US6379705B1, “Stable multi-unitary pharmaceutical preparations containing substituted benzimidazoles” (Laboratorio Mendifar-Produtos Farmaceuticos, S.A., priority 1999, dated 2002).

pH of maximum stability of solutions (omeprazole solutions): 11 | degradation in solution (pHs lower than 7.8): very quickly
SMILES: COc1ccc2[nH]c([S+]([O-])Cc3ncc(C)c(OC)c3C)nc2c1 (centres unmarked) [omeprazole]
